US7371734B2, “Oligonucleotide compositions and their use for the modulation of immune responses” (Bioniche Life Sciences Inc., priority 2002, dated 2008)
Marks after values point to notes of the source that are not given here.

Key:
Human dendritic cells [1] = experiment: OX-2 levels at the DC cell surface (flow cytometry); assay type: cell-based; settings: DC from individual A, 48 hours
Protocol: Human dendritic cells were obtained from Clonetics (San Diego, Calif., USA) and were cultured in the medium recommended by Clonetics. DC were obtained from three different individuals (see Table 1). Major histocompatability typing was performed on each of these individuals and several of the HLA (human leukocyte antigens) types are shown.
DC from individual A were seeded in 1.0 ml at 1.0×10^5 cells/ml in 6-well flat-bottomed tissue culture plates for 48 hours with 1, 10 or 100 μg of 6 base N3A or N6A polynucleotides. The level of OX-2 at the cell surface was determined after 48 hours of incubation by flow cytometry using a FITC-conjugated monoclonal antibody directed to OX-2 (BioSPARK, Greenwich, Conn., USA) and analyzed by CELLQuest Pro. […] Results are expressed as the percentage of OX-2^hi DC following treatment.

female BALB/C mice = experiment: Vaccination with hepatitis surface antigen (intramuscular), anti-HbsAg end-point dilution ELISA; assay type: in vivo
Protocol: Immunization with recombinant hepatitis B surface antigen (HbsAg; Cortex Biochemical, San Leandro, Calif., USA) combined with aluminum hydroxide (Alum; SuperFos Biosector, Vedback, Denmark) and/or with N3A, N6A or N6B polynucleotides, was conducted on 6-8 week old female BALB/C mice (Charles River, St-Constant, Qc, Canada). Each mouse (5 mice per group) received a single intramuscular injection into the tibialis muscle of a solution containing: Saline (Group 1), HbsAg 1 μg (Group 2), HbsAg 1 μg+Alum 10 μg (Group 3), HbsAg 1 μg+Alum 10 μg+N3A 10 μg (Group 4), HbsAg 1 μg+Alum 10 μg+N3A 100 μg (Group 5), HbsAg 1 μg+Alum 10 μg+N3B10 μg (Group 6), HbsAg 1 μg+Alum 10 μg+N3B100 μg (Group 7), HbsAg 1 μg+Alum 10 μg+N6A 10 μg (Group 8), HbsAg 1 μg+Alum 10 μg+N6A 100 μg (Group 9), HbsAg 1 μg+Alum 10 μg+N6B 10 μg (Group 10) and HbsAg 1 μg+Alum 10 μg+N6B 100 μg (Group 11) in a total volume of 50 μl at day 0 and day 21. Plasma was recovered at day 31.
Antibodies specific to HbsAg were detected and quantified by end-point dilution assay ELISA. Briefly, a solid phase of HbsAg protein (0.1 μg per well, overnight at 4° C.) was used to capture anti-HbsAg in the plasma (1 hour at 37° C.), which were then detected with horseradish peroxidase-conjugated goat anti-mouse IgG (total), IgG1 and IgG2a following the instructions of the manufacturer (Clonetyping system, Southern Biotechnology Inc., Birmingham, Ala., USA). […] Data are expressed in Table 13 as the mean±SD of 5 mice per group.

Human dendritic cells [2] = experiment: Increase in cell size and granularity of DC (flow cytometry); assay type: cell-based; settings: 100 μg polynucleotide, 48 hours
In short: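 Human dendritic cells from three donors, seeded at 1.0×10^5 cells/ml and exposed 48 hours to 100 μg of 6-base 3-OH, 5-OH polynucleotides. Flow cytometry; percentage of cells with forward scatter >500 units and side scatter >400 units.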

Human dendritic cells [3] = experiment: CD80 levels at the DC cell surface (flow cytometry); assay type: cell-based; settings: 100 μg, 48 hours
In short: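 Human dendritic cells from two donors, at 1.0×10^5 cells/ml, were exposed 48 h to 100 μg of 6-base polynucleotides. Surface CD80 was measured by flow cytometry with a FITC anti-CD80 antibody. Values are % CD80^hi DC.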

Human dendritic cells [4] = experiment: Induction of IL-1beta production by DC (ELISA); assay type: cell-based; settings: 100 μg, 48 hours
In short: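 Cells from three donors, seeded at 1.0×10^5 cells/ml, were exposed for 48 hours to 100 μg of 6-base polynucleotides. IL-1beta in culture supernatant measured by ELISA; values are fold increase over untreated control cells.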

[5] = HbsAg 1 μg + Alum 10 μg + polynucleotide 10 μg i.m. day 0 and 21, plasma day 31
[6] = HbsAg 1 μg + Alum 10 μg + polynucleotide 100 μg i.m. day 0 and 21, plasma day 31

Row | Substance | The percentage of OX-2^hi DC following treatment (Human dendritic cells [1]; 1.0 μg) [%] | The percentage of OX-2^hi DC following treatment (Human dendritic cells [1]; 10.0 μg) | The percentage of OX-2^hi DC following treatment (Human dendritic cells [1]; 100.0 μg) | End-point titers IgG1, mean ± SD (female BALB/C mice; [5]) | End-point titers IgG2a, mean ± SD (female BALB/C mice; [5]) | End-point titers IgG total, mean ± SD (female BALB/C mice; [5]) | End-point titers IgG1, mean ± SD (female BALB/C mice; [6]) | End-point titers IgG2a, mean ± SD (female BALB/C mice; [6]) | End-point titers IgG total, mean ± SD (female BALB/C mice; [6]) | Percentage of DC showing a FCS > 500 units and a SSC > 400 units (Human dendritic cells [2]; DC isolated from individual A) [%] | Percentage of DC showing a FCS > 500 units and a SSC > 400 units (Human dendritic cells [2]; DC isolated from individual B) [%] | Percentage of DC showing a FCS > 500 units and a SSC > 400 units (Human dendritic cells [2]; DC isolated from individual C) [%] | The percentage of CD80^hi DC following treatment (Human dendritic cells [3]; DC from individual B) [%] | The percentage of CD80^hi DC following treatment (Human dendritic cells [3]; DC from individual C) [%] | IL-1beta production by DC (fold increase compared to untreated DC) (Human dendritic cells [4]; DC isolated from individual A) [fold] | IL-1beta production by DC (fold increase compared to untreated DC) (Human dendritic cells [4]; DC isolated from individual B) [fold] | IL-1beta production by DC (fold increase compared to untreated DC) (Human dendritic cells [4]; DC isolated from individual C) [fold]
1 | 5′GGGAGG3′ [N6A] (unmodified DNA) | 64 | 62% | 64% | 2010 ± 2187 | 250 ± 257 | 439 ± 705 | 6420 ± 2528 | 291 ± 154 | 1185 ± 607 | 9 | 22 | 21 | 15 | 17 | 1.0 | 1.1 | 0.9
2 | 5′GGGAGG3′ [N6B] (DNA, backbone not given here; further chemistry not fully specified) | – | – | – | 2880 ± 1126 | 187 ± 46 | 551 ± 309 | 3560 ± 1210 | 205 ± 76 | 660 ± 364 | 4 | 17 | 36 | 4 | 4 | 1.0 | 1.1 | 1.0
3 | 5′GGGTGG3′ [N3A] | 61 | 51** % | 51** % | 9300 ± 3365 | 272 ± 255 | 849 ± 386 | 13320 ± 12993 | 860 ± 719 | 1985 ± 1748 | 8 | 15 | 31 | 12 | 18 | 1.1 | 1.1 | 1.0
4 | 5′GGGTGG3′ [N3B] | – | – | – | 3460 ± 1680 | 120 ± 26 | 287 ± 142 | 4460 ± 1884 | 204 ± 129 | 437 ± 305 | 28 | 25 | 28 | 5 | 3 | 1.7 | 4.4 | 2.1
